Patent EP2945947B1, “INHIBITING THE TRANSIENT RECEPTOR POTENTIAL A1 ION CHANNEL” (Merck Sharp & Dohme Corp., priority 2013, dated 2014)
Converted amounts (≈) assume the structure as drawn. Read-outs that look alike come from different tables or passages of the source.

Legend:
human TRPA1 = human TRPA1 (Homo sapiens, UniProt O75762); experiment: Inhibition of the TRPA1 ion channel, whole cell patch configuration (Example 1); type: cell-based; settings: current activation 10 µM AITC, read-out: Human TRPA1 IC50 Inward Current
Chain of human TRPA1 (O75762 whole entry): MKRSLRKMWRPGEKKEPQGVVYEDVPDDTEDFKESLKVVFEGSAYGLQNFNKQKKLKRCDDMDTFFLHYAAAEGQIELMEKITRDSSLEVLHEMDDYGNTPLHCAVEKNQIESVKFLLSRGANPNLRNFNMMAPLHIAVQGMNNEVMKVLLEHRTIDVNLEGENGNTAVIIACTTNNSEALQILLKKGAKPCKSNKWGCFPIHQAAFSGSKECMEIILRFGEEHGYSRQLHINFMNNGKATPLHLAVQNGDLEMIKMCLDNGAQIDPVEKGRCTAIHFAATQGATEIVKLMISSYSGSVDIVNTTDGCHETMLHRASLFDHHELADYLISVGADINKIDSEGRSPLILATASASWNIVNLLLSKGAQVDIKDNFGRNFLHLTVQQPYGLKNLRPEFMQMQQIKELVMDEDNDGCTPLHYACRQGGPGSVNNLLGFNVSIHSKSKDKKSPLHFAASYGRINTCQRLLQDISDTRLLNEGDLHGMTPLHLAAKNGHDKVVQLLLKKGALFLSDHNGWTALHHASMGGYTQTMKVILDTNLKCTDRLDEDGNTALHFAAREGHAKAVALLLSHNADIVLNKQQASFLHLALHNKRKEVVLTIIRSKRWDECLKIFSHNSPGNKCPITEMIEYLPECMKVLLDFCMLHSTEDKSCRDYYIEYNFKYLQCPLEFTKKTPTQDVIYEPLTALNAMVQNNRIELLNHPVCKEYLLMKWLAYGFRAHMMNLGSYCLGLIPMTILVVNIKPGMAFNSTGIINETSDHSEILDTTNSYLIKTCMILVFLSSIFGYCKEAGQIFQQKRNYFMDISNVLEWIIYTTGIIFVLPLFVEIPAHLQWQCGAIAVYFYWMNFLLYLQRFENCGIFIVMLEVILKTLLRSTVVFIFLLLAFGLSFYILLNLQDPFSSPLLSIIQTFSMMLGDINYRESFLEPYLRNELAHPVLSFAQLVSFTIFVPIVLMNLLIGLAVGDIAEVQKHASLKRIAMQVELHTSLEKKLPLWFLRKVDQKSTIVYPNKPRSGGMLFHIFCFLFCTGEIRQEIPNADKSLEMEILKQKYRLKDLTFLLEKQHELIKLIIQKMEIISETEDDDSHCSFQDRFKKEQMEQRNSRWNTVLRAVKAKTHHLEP
Procedure: Compounds of Formula (Ia) inhibit the TRPA1 channel, as measured using the method of Example 1. […] Data for TRPA1 inhibition and for TRPA1 selectivity was obtained by this method for the indicated compounds of Formula (Ia), with the relevant data included in Tables 1a - f below. All currents were recorded in whole-cell configuration using EPC-9 and EPC-10 amplifiers and Patchmaster software (HEKA). […] The standard pipette solution consisted of 140mM CsAsp, 10 mM EGTA, 10 mM HEPES, 2.27 mM MgCl2, 1.91 mM CaCl2, 4 mM MgATP, and 0.1-0.3 mM Na2GTP, with pH adjusted to 7.2 with CsOH. In addition, a solution containing 145 mM CsCl, 10 mM HEPES, 10 mM EGTA and 1 mM MgCl2 (pH 7.2 adjusted with CsOH) can be used. The standard bath solution contained 150 mM NaCl, 10 mM HEPES, 10 mM glucose, 4.5 mM KCl, 1 mM EGTA, 3 mM MgCl2, with pH adjusted to 7.4 with NaOH. In some instances, 2 mM CaCl2 was added in place of EGTA and the concentration of MgCl2 was reduced to 1 mM.
Data were collected either by continuous recordings at -60 mV or by applying voltage ramps from a holding potential of 0 mV every 4 s. Continuous recordings were collected at 400 Hz and digitally filtered off-line at 10 Hz for presentation. Voltage ramps were applied from - 100 mV to 100 mV over the course of 400 ms, and data were collected at 10 kHz and filtered at 2.9 kHz. Inward and outward currents were analyzed from the ramps at -80 and 80 mV, respectively. Liquid junction potential correction was not used.
Solutions were switched using a gravity-fed continuous focal perfusion system. To achieve rapid temperature changes, two temperature control, and perfusion systems were employed simultaneously. For temperatures ≥ 22°C, a Warner Instruments bipolar temperature controller (TC-344B) and inline heater (SHM-8) were used. […] Temperatures were confirmed using a thermistor (Warner Instruments, TA-29), with temperatures at the recorded cell estimated to be within +/- 2°C of those reported.
The antagonist effects of compounds of Formula (Ia) against human TRPA1 ("hTRPA1") and for some compounds rat TRPA1 ("rTRPA1") in a whole cell patch configuration were evaluated using the in vitro assay described above. The current activation tested was 10 µM AITC, and the tested concentrations ranged from 5 µM and 500 nM. Table 1a (Comparative Compounds)

rats = experiment: Rodent formalin pain model (Example 3); type: in vivo; settings: rat; for Minimal Efficacious Dose of Compound in Formalin Model: IV, statistically significant difference vs vehicle at 0 - 2 min (p≤0.05); for Duration of Pain Behavior: first two minutes after formalin, vehicle 88.6
Procedure: Compounds of Formula (Ia) are active in rodent models of pain induced by direct activation of the TRPA1 channel with intraplantar injection of the TRPA1 agonist formalin. Compounds of Formula (Ia) were tested in the formalin-induced pain test reported by Abbott et. al. Pain. 1995 Jan;60(1):91-102. Dubuisson et al. describe a method for assessing pain and analgesia in rats. Briefly, dilute formalin (50 µL of 3 % formalin) is injected into the plantar surface of the hind paw. […] The individual responsible for counting the pain behaviors in a particular study is blinded to the treatment groups.
Table 2 is a data table showing the results from testing compounds of Formula (Ia) in the rodent formalin-induced pain model described in […]. Rats were treated with the compounds of Formula (Ia) at various doses (0.1, 0.3, 1, 1.2, 3, 4, 10, or 30 mg/Kg IV) or with a control composition containing the vehicle (i.e., without a compound of Formula (Ia)). Pain behaviors (flinch, lift, lick, bite) were monitored following intraplantar formalin injection. Referring to Table 2, the minimum effective dose was derived from dose resulting in statistically significant difference in behavior at 0 - 2 min time period as compared with vehicle (p≤0.05).

[1] = Aqueous solubility in buffered solutions, HPLC (Example 2); type: physicochemical; settings: kinetic from dmso stock, ambient temperature
[2] = sodium bicarbonate buffer in water for injection/5% dextrose, pH 9.0, 50 mM sodium bicarbonate, read-out: pH 9.0 aqueous solubility
[3] = sodium phosphate buffer in water for injection/5% dextrose, pH 7.4, 75 mM sodium phosphate, read-out: pH 7.4 aqueous solubility

## CC(C)c1ccc(NC(=O)C(C)n2cnc3c2c(=O)n(C)c(=O)n3C)cc1 (stereo not shown) [Comparator 3, reference compound]
Human TRPA1
  IC50: > 100 nM

## C[C@H]1CCCN1c1ccc(-c2csc(NC(=O)C(C)(C)n3cnc4c3c(=O)n(C)c(=O)n4C)n2)cc1F [Comparator 4, reference compound]
Human TRPA1
  IC50: > 100 nM

## C[C@H]1CCCN1c1cncc(NC(=O)[C@H](C)N2C=NC3C2C(=O)N(C)C(=O)N3C)n1 (stereo partly shown) [Comparator 5, reference compound]
Human TRPA1
  IC50: > 100 nM

## C[C@H]1CCCN1c1cccc(NC(=O)[C@H](C)N2C=NC3C2C(=O)N(C)C(=O)N3C)n1 (stereo partly shown) [Comparator 6, reference compound]
Human TRPA1
  IC50: > 100 nM

## C[C@@H](C(=O)Nc1cccc(-c2cnc(N3CCC[C@H]3C(F)(F)F)nc2)n1)n1cnc2c1c(=O)n(C)c(=O)n2C [Compound 1-B, (S)-2-(1,3-Dimethyl-2,6-dioxo-1,2,3,6-tetrahydro-7H-purin-7-yl)-N-(6-(2-((S)-2-(trifluoromethyl)pyrrolidin-1-yl)pyrimidin-5-yl)pyridin-2-yl)propanamide]
rats
  Minimal Efficacious Dose of Compound in Formalin Model: <3 mg/kg
rats; dose 3 mg/kg IV
  Duration of Pain Behavior: 6.1 s
rats; dose 10 mg/kg IV
  Duration of Pain Behavior: 0.3 s
[1]; [2]
  solubility kinetic at 24 h: 49 µg/mL (≈ 90.2 µM)
[1]; [3]
  solubility kinetic at 24 h: 44 µg/mL (≈ 81 µM)
Human TRPA1
  IC50: < 25 nM

## CC(C(=O)Nc1cccc(-c2cnc(N3CCC[C@H]3C(F)(F)F)nc2)n1)n1cnc2c1c(=O)n(C)c(=O)n2C (stereo partly shown) [Compound 1-C]
Human TRPA1
  IC50: < 25 nM

## C[C@H](C(=O)Nc1cccc(-c2cnc(N3CCC[C@H]3C(F)(F)F)nc2)n1)n1cnc2c1c(=O)n(C)c(=O)n2C [Compound 1-D]
Human TRPA1
  IC50: > 100 nM

## C[C@@H](C(=O)Nc1cncc(-c2cnc(N3CCCC3(C)C)nc2)n1)n1cnc2c1c(=O)n(C)c(=O)n2C [Compound 2-F, (S)-2-(1,3-dimethyl-2,6-dioxo-1,2,3,6-tetrahydro-7H-purin-7-yl)-N-(6-(2-(2,2-dimethylpyrrolidin-1-yl)pyrimidin-5-yl)pyrazin-2-yl)propanamide]
rats
  Minimal Efficacious Dose of Compound in Formalin Model: 1 mg/kg
rats; dose 0.3 mg/kg IV
  Duration of Pain Behavior: 67.5 s
rats; dose 1 mg/kg IV
  Duration of Pain Behavior: 7 s
rats; dose 3 mg/kg IV
  Duration of Pain Behavior: 5 s
[1]; [2]
  solubility kinetic at 24 h: 6 µg/mL (≈ 11.9 µM)
[1]; [3]
  solubility kinetic at 24 h: 6 µg/mL (≈ 11.9 µM)
Human TRPA1
  IC50: < 25 nM

## C[C@H](C(=O)Nc1cncc(-c2cnc(N3CCCC3(C)C)nc2)n1)n1cnc2c1c(=O)n(C)c(=O)n2C [Compound 2-G]
Human TRPA1
  IC50: > 100 nM

## [2H]C([2H])([2H])n1c(=O)n(C)c(=O)c2c1ncn2[C@@H](C)C(=O)Nc1cncc(-c2cnc(N3CCCC3(C)C)nc2)n1 [Compound 2-H]
Human TRPA1
  IC50: < 25 nM

## [2H]C([2H])([2H])n1c(=O)n(C)c(=O)c2c1ncn2[C@H](C)C(=O)Nc1cncc(-c2cnc(N3CCCC3(C)C)nc2)n1 [Compound 2-I]
Human TRPA1
  IC50: > 100 nM

## C[C@H]1CCCN1c1ncc(-c2cncc(NC(=O)[C@H](C)n3cnc4c3c(=O)n(C)c(=O)n4C)n2)cn1 [Compound 3-K, (S)-2-(1,3-dimethyl-2,6-dioxo-1,2,3,6-tetrahydro-7H-purin-7-yl)-N-(6-(2-((S)-2-methylpyrrolidin-1-yl)pyrimidin-5-yl)pyrazin-2-yl)propanamide]
rats
  Minimal Efficacious Dose of Compound in Formalin Model: <3 mg/kg
rats; dose 3 mg/kg IV
  Duration of Pain Behavior: 13.5 s
rats; dose 10 mg/kg IV
  Duration of Pain Behavior: 2.6 s
rats; dose 30 mg/kg IV
  Duration of Pain Behavior: 3.4 s
[1]; [2]
  solubility kinetic at 24 h: 48 µg/mL (≈ 97.9 µM)
[1]; [3]
  solubility kinetic at 24 h: 38 µg/mL (≈ 77.5 µM)
Human TRPA1
  IC50: 25 to 75 nM

## C[C@H](C(=O)Nc1cncc(-c2cnc(N3CCC[C@@H]3C)nc2)n1)n1cnc2c1c(=O)n(C)c(=O)n2C [Compound 3-L]
Human TRPA1
  IC50: > 100 nM

## [2H]C([2H])([2H])n1c(=O)n(C)c(=O)c2c1ncn2[C@@H](C)C(=O)Nc1cncc(-c2cnc(N3CCC[C@@H]3C)nc2)n1 [Compound 3-M]
Human TRPA1
  IC50: < 25 nM

## C[C@H]1CCCN1c1ncc(-c2cncc(NC(=O)[C@H](C)n3cnc4c3c(=O)n(C)c(=O)n4C)n2)cn1 [Compound 3-N, (S)-2-(1,3-dimethyl-2,6-dioxo-1,2,3,6-tetrahydro-7H-purin-7-yl)-N-(6-(2-((S)-2-methylpyrrolidin-1-yl)pyrimidin-5-yl)pyrazin-2-yl)propanamide]
Human TRPA1
  IC50: > 100 nM

## C[C@H]1CCCN1c1ncc(-c2cccc(NC(=O)[C@H](C)n3cnc4c3c(=O)n(C)c(=O)n4C)n2)cn1 [Compound 4-P]
Human TRPA1
  IC50: 25 to 75 nM

## CC(C(=O)Nc1cccc(-c2cnc(N3CCC[C@@H]3C)nc2)n1)n1cnc2c1c(=O)n(C)c(=O)n2C (stereo partly shown) [Compound 4-Q]
Human TRPA1
  IC50: 25 to 75 nM

## C[C@H](C(=O)Nc1cccc(-c2cnc(N3CCC[C@@H]3C)nc2)n1)n1cnc2c1c(=O)n(C)c(=O)n2C [Compound 4-R]
Human TRPA1
  IC50: > 100 nM

## CC(C(=O)Nc1cncc(-c2cnc(N3CCC[C@H]3C(F)(F)F)nc2)n1)n1cnc2c1c(=O)n(C)c(=O)n2C (stereo partly shown) [Compound 5-U]
Human TRPA1
  IC50: < 25 nM

## C[C@H](C(=O)Nc1cncc(-c2cnc(N3CCC[C@H]3C(F)(F)F)nc2)n1)n1cnc2c1c(=O)n(C)c(=O)n2C [Compound 5-V]
Human TRPA1
  IC50: > 100 nM
